# Source: patent US11918582B2 (RAPT Therapeutics, Inc., priority 2021, dated 2024)
# Where a name gives a salt, the structure may show the parent alone.
# Molecular target: T1, human HPK1 (MAP4K1) (Homo sapiens, UniProt Q92918)
# T1 construct: Recombinant human HPK1 kinase domain was obtained from ThermoFisher (Cat. #PV6357) and SignalChem (Cat. #M23-11G); purchased ThermoFisher; SignalChem PV6357; M23-11G
# T1 sequence (Q92918 17-274 limits assumed): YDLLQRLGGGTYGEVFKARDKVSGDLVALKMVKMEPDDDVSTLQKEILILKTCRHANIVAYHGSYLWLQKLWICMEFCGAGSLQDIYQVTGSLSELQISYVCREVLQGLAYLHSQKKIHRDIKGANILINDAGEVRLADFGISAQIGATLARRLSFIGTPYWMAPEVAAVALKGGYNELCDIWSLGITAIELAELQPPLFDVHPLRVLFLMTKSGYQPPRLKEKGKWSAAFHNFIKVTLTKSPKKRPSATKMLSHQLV
# Experiment: Biochemical assay for activity against HPK1 (ADP-Glo, MBP substrate)
# Settings: recombinant human HPK1 kinase domain, 1 nM enzyme, ADP-Glo luminescence
# How it was run: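 IC50s come from ADP-Glo luminescence after a 2 h room-temperature reaction phosphorylating MBP in the presence of ATP. Compound was first preincubated 15 min with 1 nM HPK1 kinase domain, human recombinant. Buffer: 50 mM HEPES pH 7.5, 150 mM NaCl, 3 mM TCEP, 10 mM MgCl2, 0.005% Tween-20, 0.01% BSA.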
row,IC50,SMILES
1,< 100 nM,"COc1cc2c(cc1Nc1ncc3cnn([C@H]4CCC[C@H](C(N)=O)C4)c3n1)CN(C)CC2 [Example 31, (1S,3S)-3-(6-((6-methoxy-2-methyl-1,2,3,4-tetrahydroisoquinolin-7-yl)amino)-1H-pyrazolo[3,4-d]pyrimidin-1-yl)cyclohexane-1-carboxamide]"
2,< 100 nM,"CN1CCc2ccc(Nc3ncc4cnn([C@H]5CC[C@H](C(=O)O)CC5)c4n3)cc2C1 [Example 32, (1r,4r)-4-(6-((2-methyl-1,2,3,4-tetrahydroisoquinolin-7-yl)amino)-1H-pyrazolo[3,4-d]pyrimidin-1-yl)cyclohexane-1-carboxylic acid]"
3,< 100 nM,"COc1cc2c(cc1Nc1ncc3cnn(C4CCCCC4)c3n1)CN(C)CC2 [Example 33, N-(1-cyclohexyl-1H-pyrazolo[3,4-d]pyrimidin-6-yl)-6-methoxy-2-methyl-1,2,3,4-tetrahydroisoquinolin-7-amine]"
4,< 100 nM,"COc1cc2c(cc1Nc1ncc3cnn(C4C=CCCC4)c3n1)CN(C)CC2 (stereo not shown) [Example 34, N-(1-(cyclohex-2-en-1-yl)-1H-pyrazolo[3,4-d]pyrimidin-6-yl)-6-methoxy-2-methyl-1,2,3,4-tetrahydroisoquinolin-7-amine]"
5,< 100 nM,"CO[C@H]1CC[C@H](n2ncc3cnc(Nc4ccc5c(c4)CN(C)CC5)nc32)CC1 [Example 35, N-(1-((1r,4r)-4-methoxycyclohexyl)-1H-pyrazolo[3,4-d]pyrimidin-6-yl)-2-methyl-1,2,3,4-tetrahydroisoquinolin-7-amine]"
6,< 100 nM,"CO[C@H]1CC[C@@H](n2ncc3cnc(Nc4ccc5c(c4)CN(C)CC5)nc32)CC1 [Example 36, N-(1-((cis)-4-methoxycyclohexyl)-1H-pyrazolo[3,4-d]pyrimidin-6-yl)-2-methyl-1,2,3,4-tetrahydroisoquinolin-7-amine]"
7,< 100 nM,"COc1cc2c(cc1Nc1ncc3cnn([C@H]4CC[C@H](C(N)=O)CC4)c3n1)CN(C)CC2 [Example 38, (1r,4r)-4-(6-((6-methoxy-2-methyl-1,2,3,4-tetrahydroisoquinolin-7-yl)amino)-1H-pyrazolo[3,4-d]pyrimidin-1-yl)cyclohexane-1-carboxamide]"
8,< 100 nM,"COc1cc2c(cc1Nc1ncc3cnn([C@H]4CC[C@@H](O)CC4)c3n1)CN(C)CC2 [Example 39, (1s,4s)-4-(6-((6-methoxy-2-methyl-1,2,3,4-tetrahydroisoquinolin-7-yl)amino)-1H-pyrazolo[3,4-d]pyrimidin-1-yl)cyclohexan-1-ol]"
9,< 100 nM,"COc1cc2c(cc1Nc1ncc3c(C)nn([C@H]4CC[C@@H](O)CC4)c3n1)CN(C)CC2 [Example 45, (cis)-4-(6-((6-methoxy-2-methyl-1,2,3,4-tetrahydroisoquinolin-7-yl)amino)-3-methyl-1H-pyrazolo[3,4-d]pyrimidin-1-yl)cyclohexan-1-ol]"
10,< 100 nM,"COc1cc2c(cc1Nc1ncc3cnn([C@H]4CC[C@@H](OC)CC4)c3n1)CN(C)CC2 [Example 46, 6-methoxy-N-(1-((1s,4s)-4-methoxycyclohexyl)-1H-pyrazolo[3,4-d]pyrimidin-6-yl)-2-methyl-1,2,3,4-tetrahydroisoquinolin-7-amine]"
11,< 100 nM,"COc1cc2c(cc1Nc1ncc3cnn([C@H]4CC[C@H](OC)CC4)c3n1)CN(C)CC2 [Example 47, 6-methoxy-N-(1-(trans-4-methoxycyclohexyl)-1H-pyrazolo[3,4-d]pyrimidin-6-yl)-2-methyl-1,2,3,4-tetrahydroisoquinolin-7-amine]"
12,< 100 nM,"COc1cc2c(cc1Nc1ncc3cnn([C@H]4CC[C@H](O)CC4)c3n1)CN(C)CC2 [Example 49, trans-4-(6-((6-methoxy-2-methyl-1,2,3,4-tetrahydroisoquinolin-7-yl)amino)-1H-pyrazolo[3,4-d]pyrimidin-1-yl)cyclohexan-1-ol]"
13,< 100 nM,"COc1cc2c(cc1Nc1ncc3c(C)nn([C@H]4CC[C@H](O)CC4)c3n1)CN(C)CC2 [Example 50, trans-4-(6-((6-methoxy-2-methyl-1,2,3,4-tetrahydroisoquinolin-7-yl)amino)-3-methyl-1H-pyrazolo[3,4-d]pyrimidin-1-yl)cyclohexan-1-ol]"
14,< 100 nM,"COc1cc2c(cc1Nc1ncc3c(C)nn([C@H]4CC[C@@H](C(N)=O)CC4)c3n1)CN(C)CC2 [Example 51, (cis)-4-(6-((6-methoxy-2-methyl-1,2,3,4-tetrahydroisoquinolin-7-yl)amino)-3-methyl-1H-pyrazolo[3,4-d]pyrimidin-1-yl)cyclohexane-1-carboxamide]"
15,< 100 nM,"CNC(=O)[C@H]1CC[C@@H](n2nc(C)c3cnc(Nc4cc5c(cc4OC)CCN(C)C5)nc32)CC1 [Example 52, (cis)-4-(6-((6-methoxy-2-methyl-1,2,3,4-tetrahydroisoquinolin-7-yl)amino)-3-methyl-1H-pyrazolo[3,4-d]pyrimidin-1-yl)-N-methylcyclohexane-1-carboxamide]"
16,< 100 nM,"CNC(=O)[C@@H]1CCC[C@@H](n2ncc3cnc(Nc4cc5c(cc4OC)CCN(C)C5)nc32)C1 [Example 53, (1R,3R)-3-(6-((6-methoxy-2-methyl-1,2,3,4-tetrahydroisoquinolin-7-yl)amino)-1H-pyrazolo[3,4-d]pyrimidin-1-yl)-N-methylcyclohexane-1-carboxamide]"
17,< 100 nM,"COc1cc2c(cc1Nc1ncc3cnn([C@H]4CC[C@@H](C(=O)N(C)C)CC4)c3n1)CN(C)CC2 [Example 54, (1s,4s)-4-(6-((6-methoxy-2-methyl-1,2,3,4-tetrahydroisoquinolin-7-yl)amino)-1H-pyrazolo[3,4-d]pyrimidin-1-yl)-N,N-dimethylcyclohexane-1-carboxamide]"
18,< 100 nM,"COc1cc2c(cc1Nc1ncc3cnn([C@H]4CC[C@H](C(=O)N(C)C)CC4)c3n1)CN(C)CC2 [Example 55, (1r,4r)-4-(6-((6-methoxy-2-methyl-1,2,3,4-tetrahydroisoquinolin-7-yl)amino)-1H-pyrazolo[3,4-d]pyrimidin-1-yl)-N,N-dimethylcyclohexane-1-carboxamide]"
19,< 100 nM,"COc1cc2c(cc1Nc1ncc3c(C)nn([C@@H]4CCC[C@@H](C(N)=O)C4)c3n1)CN(C)CC2 [Example 56, (1R,3R)-3-(6-((6-methoxy-2-methyl-1,2,3,4-tetrahydroisoquinolin-7-yl)amino)-3-methyl-1H-pyrazolo[3,4-d]pyrimidin-1-yl)cyclohexane-1-carboxamide]"
20,< 100 nM,"CN1CCc2c(cc(Nc3ncc4cnn([C@H]5CC[C@H](CO)CC5)c4n3)cc2C(F)(F)F)C1 [Example 57, ((1r,4r)-4-(6-((2-methyl-5-(trifluoromethyl)-1,2,3,4-tetrahydroisoquinolin-7-yl)amino)-1H-pyrazolo[3,4-d]pyrimidin-1-yl)cyclohexyl)methanol]"
21,< 100 nM,"CN1CCc2c(cc(Nc3ncc4cnn([C@H]5CC[C@H](O)CC5)c4n3)cc2C(F)(F)F)C1 [Example 58, (1r,4r)-4-(6-((2-methyl-5-(trifluoromethyl)-1,2,3,4-tetrahydroisoquinolin-7-yl)amino)-1H-pyrazolo[3,4-d]pyrimidin-1-yl)cyclohexan-1-ol]"
22,< 100 nM,"CNC(=O)[C@H]1CC[C@H](n2ncc3cnc(Nc4cc5c(cc4OC)CCN(C)C5)nc32)CC1 [Example 60, (1r,4r)-4-(6-((6-methoxy-2-methyl-1,2,3,4-tetrahydroisoquinolin-7-yl)amino)-1H-pyrazolo[3,4-d]pyrimidin-1-yl)-N-methylcyclohexane-1-carboxamide]"
23,< 100 nM,"COc1cc2c(cc1Nc1ncc3cnn(CC4CC(CO)C4)c3n1)CN(C)CC2 (stereo not shown) [Example 61, (3-((6-((6-methoxy-2-methyl-1,2,3,4-tetrahydroisoquinolin-7-yl)amino)-1H-pyrazolo[3,4-d]pyrimidin-1-yl)methyl)cyclobutyl)methanol]"
24,< 100 nM,"CC(=O)N1CCC[C@H]1Cn1ncc2cnc(Nc3cc4c(c(C(F)(F)F)c3)CCN(C)C4)nc21 [Example 62, (S)-1-(2-((6-((2-methyl-5-(trifluoromethyl)-1,2,3,4-tetrahydroisoquinolin-7-yl)amino)-1H-pyrazolo[3,4-d]pyrimidin-1-yl)methyl)182thenone182ne-1-yl)ethan-1-one]"
25,< 100 nM,"COc1cc2c(cc1Nc1ncc3cnn([C@H]4CCC[C@H](CO)C4)c3n1)CN(C)CC2 [Example 63, ((1S,3S)-3-(6-((6-methoxy-2-methyl-1,2,3,4-tetrahydroisoquinolin-7-yl)amino)-1H-pyrazolo[3,4-d]pyrimidin-1-yl)cyclohexyl)methanol hydrochloride]"
26,< 100 nM,"COc1cc2c(cc1Nc1ncc3cnn([C@H]4C[C@H](CO)C4)c3n1)CN(C)CC2 [Example 65, trans-[3-[6-[(6-methoxy-2-methyl-3,4-dihydro-1H-isoquinolin-7-yl)amino]pyrazolo[3,4-d]pyrimidin-1-yl]cyclobutyl]methanol]"
27,< 100 nM,"COc1cc2c(cc1Nc1ncc3cnn([C@H]4C[C@@H](CO)C4)c3n1)CN(C)CC2 [Example 66, cis-[3-[6-[(6-methoxy-2-methyl-3,4-dihydro-1H-isoquinolin-7-yl)amino]pyrazolo[3,4-d]pyrimidin-1-yl]cyclobutyl]methanol]"
28,< 100 nM,"COc1cc2c(cc1Nc1ncc3cnn([C@H]4CC[C@@H](CO)CC4)c3n1)CN(C)CC2 [Example 67, cis-[4-[6-[(6-methoxy-2-methyl-3,4-dihydro-1H-isoquinolin-7-yl)amino]pyrazolo[3,4-d]pyrimidin-1-yl]cyclohexyl]methanol]"
